Patent US5747065A, “Monoglyceride/lactate ester permeation enhancer for oxybutynin” (priority 1996, dated 1998)
Where two headings read alike, the source gives them in different places. Values belong to the compound of their own block, whether it stands above or below them.

Key:
[1] = compared with racemate; devices/gels of Table 4
Protocol: The drug/permeation enhancer reservoir was prepared by mixing, depending on the formulation, either ethylene vinyl acetate copolymer having a vinyl acetate content of 40 percent ("EVA 40", U.S.I. Chemicals, Illinois) or mineral oil and petrolatum in an internal mixer (Bra Bender type mixer) until the EVA 40 pellets fused. Oxybutynin, glycerol monolaurate and lauryl lactate were then added.
When EVA 40 was used the mixture was blended, cooled and calendered to a 5 mil thick film. This film was then laminated to an acrylic contact adhesive (MSP041991P, 3M) on one side and Medpar® backing (3M) on the opposite side. The laminate was then cut into 2.54 cm^2 circles using a stainless steel punch. Circular pieces of human-epidermis were mounted on horizontal permeation cells with the stratum corneum facing the donor compartment of the cell. The release liner of the system was then removed and the system was centered over the stratum corneum side of the epidermis. A known volume of the receptor solution (0.05M sodium phosphate buffer at pH 6) that had been equilibrated at 35° C. was placed in the receptor compartment. Air bubbles were removed; the cell was capped and placed in a water bath-shaker at 35° C.
When the mineral oil/petrolatum was used, the mixture, containing the drug and permeation enhancers, was blended/mixed and then poured into the donor side of a two-side diffusion cell. […]

[2] = Solubility of glycerol monolaurate in lauryl lactate / EVA 40; type: physicochemical; details: for Wt % GML in solution (free GML): based on GML solubility of 350 mg/g
Excerpt: The unexpected effects of the specific weight percentages of the components of the permeation enhancer mixture are believed to be due, in part, to the solubility of the monoglyceride in the lactic acid ester. It is known that monoglycerides by themselves are effective permeation enhancers. The enhancement occurs by the solubilization of the monoglyceride in the lipid layer of the skin. The solubilization of the monoglyceride in the lipid layer increases as a function of lactic acid ester concentration. […] Thus, the amount of GML dissolved, ie, free GML, is dictated by and proportional to the lauryl lactate loading in the polymer.

[3] = type: in vivo, human; details: transdermal, coadministered with the permeation enhancing mixture
Protocol: Representative skin permeation rates of oxybutynin through living human skin are in the range of about 5 μg/cm^2 ·hr to about 15 μg/cm^2 ·hr. Therapeutic blood levels can be achieved within approximately 6-10 hours after the initial application, and blood concentrations are maintained with subsequent system applications. The range of desired and achievable system permeation rates of oxybutynin, arriving through the skin from a limited area, is 1-20 mg over a period of 24 hours. The system application is easily adapted for shorter or longer duration treatments, but generally 72 hours is the duration for a single application.

[4] = 25 mg/mL aqueous oxybutynin, 20 μm polybutadiene film, 0.05M isotonic phosphate buffer, cited from earlier work

Compound: CCN(CC)CC#CCOC(=O)[C@](O)(c1ccccc1)C1CCCCC1 [R-oxybutynin]
flux of R- or S-oxybutynin relative to the racemate [1]: approximately equivalent to that of the racemate

Compound: CCN(CC)CC#CCOC(=O)[C@@](O)(c1ccccc1)C1CCCCC1 [S-oxybutynin]
flux of R- or S-oxybutynin relative to the racemate [1]: approximately equivalent to that of the racemate

Wt % GML in solution (free GML) ([2]; 12% lauryl lactate in EVA 40): 4.2%
Wt % GML in solution (free GML) ([2]; 20% lauryl lactate in EVA 40): 7.0%
Wt % GML in solution (free GML) ([2]; 27% lauryl lactate in EVA 40): 9.5%
Wt % GML in solution (free GML) ([2]; 30% lauryl lactate in EVA 40): 10.5%
solubility in EVA 40 matrix ([2]; in an EVA 40 matrix): practically insoluble
solubility of glycerol monolaurate in lauryl lactate ([2]; in lauryl lactate, solution stirred): 350 mg/g of solution
Compound: CCCCCCCCCCCC(=O)OCC(O)CO (centres unmarked) [glycerol monolaurate]

Compound: CCN(CC)CC#CCOC(=O)C(O)(c1ccccc1)C1CCCCC1 (centres unmarked) [oxybutynin]
time to therapeutic blood levels after the initial application [3]: 6 to 10 h
in vitro release rate ([4]; per area): ~10 μg/cm^2 ·hr
in vitro release rate ([4]; through 49 cm^2 area): approximately 12 mg over 24 hours
